These molecules were tested against MGAT2 Human (Homo sapiens (Human), UniProt Q3SYC2) (assay: MGAT2 Human IC50).
Type: biochemical

Chain of MGAT2 Human (Q3SYC2 whole entry): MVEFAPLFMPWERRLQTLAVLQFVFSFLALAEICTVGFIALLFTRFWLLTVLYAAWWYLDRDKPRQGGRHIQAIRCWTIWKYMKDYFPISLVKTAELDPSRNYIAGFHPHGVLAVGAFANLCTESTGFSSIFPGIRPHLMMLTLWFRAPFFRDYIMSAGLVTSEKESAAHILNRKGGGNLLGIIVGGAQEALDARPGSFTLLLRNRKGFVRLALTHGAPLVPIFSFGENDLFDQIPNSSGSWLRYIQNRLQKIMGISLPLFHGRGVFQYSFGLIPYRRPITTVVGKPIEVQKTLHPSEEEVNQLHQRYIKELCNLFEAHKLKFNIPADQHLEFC

Row | Structure (SMILES) | IC50
1 | C[C@H](c1cccc(Cl)c1)N1CCc2ccc(S(=O)(=O)Nc3cc(C(C)(C)C)on3)cc2C1 [Example 1, (R)—N-(5-(tert-butyl)isoxazol-3-yl)-2-(1-(3-chlorophenyl)ethyl)-1,2,3,4-tetrahydroisoquinoline-7-sulfonamide] | 9 nM
2 | C[C@H](c1cc(F)cc(F)c1F)N1CCc2ccc(S(=O)(=O)Nc3cc(C(C)(C)C)on3)cc2C1 [Example 2, (R)—N-(5-(tert-butyl)isoxazol-3-yl)-2-(1-(2,3,5-trifluorophenyl)ethyl)-1,2,3,4-tetrahydroisoquinoline-7-sulfonamide] | 6 nM
3 | C[C@H](c1ccccc1)N1CCc2ccc(S(=O)(=O)Nc3cc(C(C)(C)C)on3)cc2C1 [Example 3, (R)—N-(5-(tert-butyl)isoxazol-3-yl)-2-(1-phenylethyl)-1,2,3,4-tetrahydroisoquinoline-7-sulfonamide] | 9 nM
4 | CCSc1ncc([C@@H](C)N2CCc3ccc(S(=O)(=O)Nc4cc(C(C)(C)C)on4)cc3C2)cn1 [Example 4, (R)—N-(5-(tert-butyl)isoxazol-3-yl)-2-(1-(2-(ethylthio)pyrimidin-5-yl)ethyl)-1,2,3,4-tetrahydroisoquinoline-7-sulfonamide] | 11 nM
5 | Cc1c(NS(=O)(=O)c2ccc3c(c2)CN([C@H](C)c2ccc(OCC(F)(F)F)nc2)CC3)noc1C(C)(C)C [Example 5, (R)—N-(5-(tert-butyl)-4-methylisoxazol-3-yl)-2-(1-(6-(2,2,2-trifluoroethoxy)pyridin-3-yl)ethyl)-1,2,3,4-tetrahydroisoquinoline-7-sulfonamide] | 4.5 nM
6 | C[C@H](c1ccc(OCC(F)(F)F)nc1)N1CCc2ccc(S(=O)(=O)Nc3noc(-c4ccccc4)n3)cc2C1 [Example 6] | 9.2 nM
7 | CCc1noc(NS(=O)(=O)c2ccc3c(c2)CN([C@H](C)c2ccc(OCC(F)(F)F)nc2)CC3)n1 [Example 7] | 8.1 nM
8 | CC(C)c1nc(NS(=O)(=O)c2ccc3c(c2)CN([C@H](C)c2ccc(OCC(F)(F)F)nc2)CC3)no1 [Example 8] | 13 nM
9 | C[C@H](c1ccc(OCC(F)(F)F)nc1)N1CCc2ccc(S(=O)(=O)Nc3cc(C(C)(C)C)on3)cc2C1 [Example 9, (R)—N-(5-(tert-butyl)isoxazol-3-yl)-2-(1-(6-(2,2,2-trifluoroethoxy)pyridin-3-yl)ethyl)-1,2,3,4-tetrahydroisoquinoline-7-sulfonamide] | 11 nM
10 | C[C@H](c1cnc(OCC(F)(F)F)nc1)N1CCc2ccc(S(=O)(=O)Nc3noc(C(C)(C)C)c3Br)cc2C1 [Example 10, (R)—N-(4-bromo-5-(tert-butyl)isoxazol-3-yl)-2-(1-(2-(2,2,2-trifluoroethoxy)pyrimidin-5-yl)ethyl)-1,2,3,4-tetrahydroisoquinoline-7-sulfonamide] | 17 nM
11 | C[C@H](c1cnc(OCC(F)(F)F)nc1)N1CCc2ccc(S(=O)(=O)Nc3noc(C(C)(C)C)c3-c3cccc(F)c3)cc2C1 [Example 11, (R)—N-(5-(tert-butyl)-4-(3-fluorophenyl)isoxazol-3-yl)-2-(1-(2-(2,2,2-trifluoroethoxy)pyrimidin-5-yl)ethyl)-1,2,3,4-tetrahydroisoquinoline-7-sulfonamide] | 20 nM
12 | C[C@H](c1cnc(OCC(F)(F)F)nc1)N1CCc2ccc(S(=O)(=O)Nc3cc(C(C)(C)C)on3)cc2C1 [Example 12, (R)—N-(5-(tert-butyl)isoxazol-3-yl)-2-(1-(2-(2,2,2-trifluoroethoxy)pyrimidin-5-yl)ethyl)-1,2,3,4-tetrahydroisoquinoline-7-sulfonamide] | 14 nM
13 | C[C@H](c1ccc(OCC(F)(F)F)nc1)N1CCc2ccc(S(=O)(=O)Nc3noc(C(C)(C)C)c3Cl)cc2C1 [Example 13, (R)—N-(5-(tert-butyl)-4-chloroisoxazol-3-yl)-2-(1-(6-(2,2,2-trifluoroethoxy)pyridin-3-yl)ethyl)-1,2,3,4-tetrahydroisoquinoline-7-sulfonamide] | 16 nM
14 | Cc1c(NS(=O)(=O)c2ccc3c(c2)CN([C@H](C)c2cnc(OCC(F)(F)F)cn2)CC3)noc1C(C)(C)C [Example 14, (R)—N-(5-(tert-butyl)-4-methylisoxazol-3-yl)-2-(1-(5-(2,2,2-trifluoroethoxy)pyrazin-2-yl)ethyl)-1,2,3,4-tetrahydroisoquinoline-7-sulfonamide] | 3.1 nM
15 | Cc1c(NS(=O)(=O)c2ccc3c(c2)CN(Cc2ccc(OCC(F)(F)F)nc2)CC3)noc1C(C)(C)C [Example 15, N-(5-(tert-butyl)-4-methylisoxazol-3-yl)-2-((6-(2,2,2-trifluoroethoxy)pyridin-3-yl)methyl)-1,2,3,4-tetrahydroisoquinoline-7-sulfonamide] | 11 nM
16 | CC(C)(C)c1onc(NS(=O)(=O)c2ccc3c(c2)CN(Cc2ccc(OCC(F)(F)F)nc2)CC3)c1F [Example 16, N-(5-(tert-butyl)-4-fluoroisoxazol-3-yl)-2-((6-(2,2,2-trifluoroethoxy)pyridin-3-yl)methyl)-1,2,3,4-tetrahydroisoquinoline-7-sulfonamide] | 16 nM
17 | Cc1onc(NS(=O)(=O)c2ccc3c(c2)CN([C@H](C)c2ccc(OCC(F)(F)F)nc2)CC3)c1-c1cnn(C)c1 [Example 17, (R)—N-(5-methyl-4-(1-methyl-1H-pyrazol-4-yl)isoxazol-3-yl)-2-(1-(6-(2,2,2-trifluoroethoxy)pyridin-3-yl)ethyl)-1,2,3,4-tetrahydroisoquinoline-7-sulfonamide] | 24 nM
18 | C[C@H](c1ccc(OCC(F)(F)F)nc1)N1CCc2ccc(S(=O)(=O)Nc3cc(C(C)(C)O)on3)cc2C1 [Example 18, (R)—N-(5-(2-hydroxypropan-2-yl)isoxazol-3-yl)-2-(1-(6-(2,2,2-trifluoroethoxy)pyridin-3-yl)ethyl)-1,2,3,4-tetrahydroisoquinoline-7-sulfonamide] | 23 nM
19 | C[C@H](c1ccc(OCC(F)(F)F)nc1)N1CCc2ccc(S(=O)(=O)Nc3cc(C(C)(C)F)on3)cc2C1 [Example 19, (R)—N-(5-(2-fluoropropan-2-yl)isoxazol-3-yl)-2-(1-(6-(2,2,2-trifluoroethoxy)pyridin-3-yl)ethyl)-1,2,3,4-tetrahydroisoquinoline-7-sulfonamide] | 18 nM
20 | Cc1c(NS(=O)(=O)c2ccc3c(c2)CN(Cc2cnc(SCC(F)(F)F)nc2)CC3)noc1C(C)(C)C [Example 20, N-(5-(tert-butyl)-4-methylisoxazol-3-yl)-2-((2-((2,2,2-trifluoroethyl)thio)pyrimidin-5-yl)methyl)-1,2,3,4-tetrahydroisoquinoline-7-sulfonamide] | 5.8 nM
21 | C/C=C/c1c(NS(=O)(=O)c2ccc3c(c2)CN(Cc2cnc(OCC(F)(F)F)s2)CC3)noc1C(C)(C)C [Example 21, (E)-N-(5-(tert-butyl)-4-(prop-1-en-1-yl)isoxazol-3-yl)-2-((2-(2,2,2-trifluoroethoxy)thiazol-5-yl)methyl)-1,2,3,4-tetrahydroisoquinoline-7-sulfonamide] | 3.9 nM
22 | C[C@H](c1ccc(OCC(F)F)nc1)N1CCc2ccc(S(=O)(=O)Nc3cc(C(C)(C)C)on3)cc2C1 [Example 22] | 6.4 nM
23 | C[C@H](c1ccc(OCC(F)F)nc1)N1CCc2ccc(S(=O)(=O)Nc3noc(C4CC4)n3)cc2C1 [Example 23, (R)-5-cyclopropyl-3-(2-(1-(6-(2,2-difluoroethoxy)pyridin-3-yl)ethyl)-1,2,3,4-tetrahydroisoquinoline-7-sulfonamido)-1,2,4-oxadiazol-2-ium 2,2,2-trifluoroacetate] | 8.2 nM

Source: patent publication US10065945B2, “Isoquinoline derivatives as MGAT2 inhibitors” (Merck Sharp & Dohme Corp., priority 2014, dated 2018)
